Like-named read-outs stand apart in the source and are kept apart here.
Assays:
[1] = log P by HPLC on reversed-phase column (EEC Directive 79/831 Annex V.A8); type: physicochemical; settings: reversed-phase HPLC column (C18); pH 7.8, 0.001 molar aqueous ammonium bicarbonate/acetonitrile, 55° C.; read-out: log P (neutral)
Experimental: The log P values are measured according to EEC Directive 79/831 Annex V.A8 by HPLC (high-performance liquid chromatography) on a reversed-phase column (C 18). Temperature: 55° C.
The LC-MS determination in the neutral range is effected at pH 7.8 with 0.001 molar aqueous ammonium bicarbonate solution and acetonitrile as mobile phases; linear gradient from 10% acetonitrile to 95% acetonitrile. Called log P (neutral) in the table.
Calibration is carried out using unbranched alkan-2-ones (having 3 to 16 carbon atoms) with known Log P values (Log P values determined on the basis of the retention times by linear interpolation between two successive alkanones).

Aphis gossypii = Aphis gossypii spray test (APHIGO); type: in vivo; settings: 144 h, 6 dat, read-out: % efficacy
Experimental: Aphis gossypii Spray Test (APHIGO) • Solvent: 14 parts by weight of dimethylformamide • Emulsifier: alkylaryl polyglycol ether
(§1) To produce a suitable active compound preparation, 1 part by weight of active compound is dissolved using the stated parts by weight of solvent and made up with water containing an emulsifier concentration of 1000 ppm until the desired concentration is attained. To produce further test concentrations, the formulation is diluted with emulsifier-containing water. If the addition of ammonium salts or/and penetrants is required, these are each added in a concentration of 1000 ppm to the formulation solution.
Cotton plants (Gossypium hirsutum) heavily infested by the cotton aphid (Aphis gossypii) are sprayed with an active compound formulation of the desired concentration.
After the desired time, the kill in % is determined. 100% means that all the aphids have been killed; 0% means that no aphids have been killed.

Phaedon cochleariae = Phaedon cochleariae spray test; type: in vivo; settings: 168 h, read-out: efficacy; for pest or weed control at 20 g/ha: application rate 20 g/ha
Experimental: Phaedon cochleariae—Spray Test • Solvent: 78.0 parts by weight of acetone • 1.5 parts by weight of dimethylformamide • Emulsifier: alkylaryl polyglycol ether
(§2) To produce a suitable active compound preparation, 1 part by weight of active compound is dissolved using the stated parts by weight of solvent and made up with water containing an emulsifier concentration of 1000 ppm until the desired concentration is attained. To produce further test concentrations, the formulation is diluted with emulsifier-containing water.
Discs of Chinese cabbage leaves (Brassica pekinensis) are sprayed with an active compound formulation of the desired concentration and, after drying, populated with larvae of the mustard beetle (Phaedon cochleariae).
After 7 days, the efficacy in % is determined. 100% means that all the beetle larvae have been killed; 0% means that no beetle larvae have been killed.

Myzus persicae [2] = experiment: Myzus persicae drench test (MYZUPE D), savoy cabbage; type: in vivo; settings: soil, 240 h, 10 dat, read-out: % efficacy
Experimental: Myzus persicae—Drench Test (MYZUPE D) • Solvent: 7 parts by weight of dimethylformamide • Emulsifier: 2 parts by weight of alkylaryl polyglycol ether
To produce a suitable active compound preparation, 1 part by weight of active compound is mixed with the specified amounts of solvent and emulsifier, and the concentrate is diluted with water to the desired concentration, it being necessary to include the volume of soil which is drenched in the calculation. It should be ensured that a concentration of 40 ppm of emulsifier in the soil is not exceeded. To produce further test concentrations, water is used for dilution.
Savoy cabbage (Brassica oleracea) in pots with soil and infested by all stages of the green peach aphid (Myzus persicae) is watered with an active compound preparation of the desired concentration.
After the desired period of time, the efficacy in % is determined. 100% means that all the aphids have been killed; 0% means that no aphids have been killed.

Myzus persicae [3] = experiment: Myzus persicae spray test (Chinese cabbage leaf discs); type: in vivo; settings: foliar, 120 h, read-out: efficacy
Experimental: Myzus persicae Spray Test • Solvent: 78 parts by weight of acetone • 1.5 parts by weight of dimethylformamide • Emulsifier: alkylaryl polyglycol ether
as §2
Discs of Chinese cabbage leaves (Brassica pekinensis) infested by all stages of the green peach aphid (Myzus persicae) are sprayed with an active compound formulation of the desired concentration.
(§3) After 5 days, the efficacy in % is determined. 100% means that all the aphids have been killed; 0% means that no aphids have been killed.

Myzus persicae [4] = experiment: Myzus persicae oral test; type: in vivo; settings: 120 h, read-out: efficacy
Experimental: Myzus persicae Oral Test • Solvent: 100 parts by weight of acetone
To produce a suitable preparation of active compound, 1 part by weight of active compound is dissolved using the specified parts by weight of solvent and made up with water until the desired concentration is attained.
50 μl of the active compound preparation are transferred into microtitre plates and made up to a final volume of 200 μl with 150 μl of IPL41 insect medium (33%+15% sugar). Subsequently, the plates are sealed with parafilm, which a mixed population of green peach aphids (Myzus persicae) within a second microtitre plate is able to puncture and imbibe the solution through.
as §3

Myzus persicae [5] = experiment: Myzus persicae spray test (MYZUPE S), bell pepper plants; type: in vivo; settings: 144 h, 6 dat, read-out: % efficacy
Experimental: Myzus persicae—Spray Test (MYZUPE S) • Solvent: 14 parts by weight of dimethylformamide • Emulsifier: alkylaryl polyglycol ether
as §1
Bell pepper plants (Capsicum annuum) severely infested with the green peach aphid (Myzus persicae) are treated by spraying with the active compound formulation in the desired concentration.
After the desired time, the kill in % is determined. 100% means that all the animals have been killed; 0% means that no animals have been killed.

Spodoptera frugiperda = Spodoptera frugiperda spray test; type: in vivo; settings: application rate 100 g/ha, after 7 days
Experimental: Spodoptera frugiperda—Spray Test • Solvent: 78.0 parts by weight of acetone • 1.5 parts by weight of dimethylformamide • Emulsifier: alkylaryl polyglycol ether
as §2
Leaf discs of maize (Zea mays) are sprayed with an active compound formulation of the desired concentration and, after drying, populated with caterpillars of the fall armyworm (Spodoptera frugiperda).
After 7 days, the efficacy in % is determined. 100% means that all the caterpillars have been killed; 0% means that no caterpillar has been killed.

Nilaparvata lugens = Nilaparvata lugens spray test (NILALU); type: in vivo; settings: 96 h, 4 dat, read-out: % efficacy
Experimental: Nilaparvata lugens—Spray Test (NILALU) • Solvent: 52.5 parts by weight of acetone • 7 parts by weight of dimethylformamide • Emulsifier: alkylaryl polyglycol ether
as §1
Rice plants (Oryza sativa) are sprayed with an active ingredient formulation of the desired concentration and then populated with larvae of the brown planthopper (Nilaparvata lugens).
After the desired period of time, the efficacy in % is determined. 100% means that all of the planthoppers have been killed; 0% means that none of the planthoppers have been killed.

Ctenocephalides felis = Ctenocephalides felis oral test; type: in vivo; settings: application rate 100 ppm in citrated cattle blood, after 2 days
Experimental: Ctenocephalides felis—Oral Test • Solvent: dimethyl sulfoxide
To produce a suitable active compound formulation, 10 mg of active compound are mixed with 0.5 ml of dimethyl sulfoxide. Dilution with citrated cattle blood gives the desired concentration.
About 20 unfed adult cat fleas (Ctenocephalides felis) are placed into a chamber which is closed at the top and bottom with gauze. A metal cylinder whose bottom end is closed with parafilm is placed onto the chamber. The cylinder contains the blood/active compound formulation, which can be imbibed by the fleas through the parafilm membrane.
After 2 days, the kill in % is determined. 100% means that all of the fleas have been killed; 0% means that none of the fleas have been killed.

Lucilia cuprina = Lucilia cuprina test; type: in vivo; settings: application rate 100 ppm, L1 larvae, after 2 days
Experimental: Lucilia cuprina Test • Solvent: dimethyl sulfoxide
To produce a suitable active compound formulation, 10 mg of active compound are mixed with 0.5 ml of dimethyl sulfoxide, and the concentrate is diluted with water to the desired concentration.
About 20 L1 larvae of the Australian sheep blowfly (Lucilia cuprina) are transferred into a test vessel containing minced horsemeat and the active compound formulation of the desired concentration.
After 2 days, the kill in % is determined. 100% means that all the larvae have been killed; 0% means that no larvae have been killed.

[6] = application rate 100 g/ha, after 5 days
[7] = application rate 4 ppm, after 5 days
[8] = application rate 100 g/ha, after 7 days

N=C(Nc1cnc(C(F)(F)F)cn1)c1nc2ccccc2cc1Br [3-Bromo-N-[5-(trifluoromethyl)pyrazin-2-yl]quinoline-2-carboxamidine]
chromatographic logP [1]: 3.01

CCS(=O)(=O)c1c(-c2nc3ccc(C(F)(F)F)cn3n2)nc2cc(C3CC3)ccn12 [Example I-10]
aphid kill at 20 ppm (Aphis gossypii): 99%
pest or weed control at 20 g/ha (Phaedon cochleariae; after 7 days): 83%
Emax at 20 ppm (Myzus persicae [2]): 90%
pest or weed control at 100 g/ha (Myzus persicae [3]; [6]): 90%
pest or weed control at 4 ppm (Myzus persicae [4]; [7]): 100%
Emax at 20 ppm (Myzus persicae [5]): 100%
efficacy (Spodoptera frugiperda): 83%
Emax at 100 g/ha (Nilaparvata lugens): 100%

CCS(=O)(=O)c1c(C(=O)OC)nc2cc(C(F)(F)F)ccn12 [Methyl 3-(ethylsulfonyl)-7-(trifluoromethyl)imidazo[1,2-a]pyridine-2-carboxylate]
chromatographic logP [1]: 2.15

CCS(=O)(=O)c1c(-c2nc3ccc(C(F)(F)F)cn3n2)nc2cc(OCC(F)(F)F)ccn12 [Example I-06]
Emax at 20 ppm (Aphis gossypii): 95%
pest or weed control at 20 g/ha (Phaedon cochleariae; after 7 days): 100%
pest or weed control at 100 g/ha (Phaedon cochleariae; [8]): 100%
pest or weed control at 4 ppm (Myzus persicae [4]; [7]): 100%
Emax at 20 ppm (Myzus persicae [5]): 99%

CCSc1c(C(=O)OC)nc2cc(C(F)(F)F)ccn12 [Methyl 3-(ethylsulfanyl)-7-(trifluoromethyl)imidazo[1,2-a]pyridine-2-carboxylate]
chromatographic logP [1]: 2.56

CCS(=O)(=O)c1cc2ccccc2nc1-c1nc2cnc(C(F)(F)F)cn2n1 [Example I-02, 3-Ethylsulfonyl-2-[6-(trifluoromethyl)-[1,2,4]triazolo[1,5-a]pyrazin-2-yl]quinoline]
pest or weed control at 100 g/ha (Phaedon cochleariae; [8]): 100%
pest or weed control at 100 g/ha (Myzus persicae [3]; [6]): 100%
pest or weed control at 4 ppm (Myzus persicae [4]; [7]): 90%
chromatographic logP [1]: 2.44

CCS(=O)(=O)c1c(-c2nc3ccc(C(F)(F)F)cn3n2)nc2cc(NC(C)=O)ccn12 [Example I-07]
efficacy (kill) (Ctenocephalides felis): 100%
pest or weed control at 4 ppm (Myzus persicae [4]; [7]): 100%

CCS(=O)(=O)c1c(-c2nc3ccc(C(F)(F)F)cn3n2)nc2cc(NC(=O)OC)ccn12 [Example I-08]
pest or weed control at 100 g/ha (Phaedon cochleariae): 83%
efficacy (kill) (Ctenocephalides felis): 90%
pest or weed control at 100 g/ha (Myzus persicae [3]): 100%
efficacy (kill) (Lucilia cuprina): 100%
pest or weed control at 4 ppm (Myzus persicae [4]): 100%

CCS(=O)(=O)c1c(-c2nc3ccc(C(F)(F)F)cn3n2)nc2cc(S(=O)(=O)C3CC3)ccn12 [Example I-13]
Emax at 20 ppm (Aphis gossypii): 99%
pest or weed control at 20 g/ha (Phaedon cochleariae; after 7 days): 83%
pest or weed control at 100 g/ha (Phaedon cochleariae; [8]): 100%
Emax at 20 ppm (Myzus persicae [2]): 100%
pest or weed control at 100 g/ha (Myzus persicae [3]; [6]): 100%
pest or weed control at 4 ppm (Myzus persicae [4]; [7]): 100%
Emax at 20 ppm (Myzus persicae [5]): 95%
Emax at 100 g/ha (Nilaparvata lugens): 100%

FC(F)(F)c1cn2nc(-c3nc4ccccc4cc3Br)nc2cn1 [3-Bromo-2-[6-(trifluoromethyl)-[1,2,4]triazolo[1,5-a]pyrazin-2-yl]quinoline]
chromatographic logP [1]: 2.98

CCS(=O)(=O)c1c(-c2nc3ccc(C(F)(F)F)cn3n2)nc2cc(C(=O)OC)ccn12 [Example I-11]
pest or weed control at 4 ppm (Myzus persicae [4]; [7]): 100%

CCS(=O)(=O)c1c(C(N)=O)nc2cc(C(F)(F)F)ccn12 [3-(Ethylsulfonyl)-7-(trifluoromethyl)imidazo[1,2-a]pyridine-2-carboxamide]
chromatographic logP [1]: 1.57

CCS(=O)(=O)c1c(-c2nc3cc(C(F)(F)F)ccc3n2C)nc2cc(C(F)(F)F)ccn12 [Example I-34, reference compound]
aphid kill at 20 ppm (Aphis gossypii): 0%
Emax at 20 ppm (Myzus persicae [2]): 0%
Emax at 20 ppm (Myzus persicae [5]): 0%
Emax at 100 g/ha (Nilaparvata lugens): 0%
Emax at 500 g/ha (Nilaparvata lugens; 500 g/ha): 0%

CCS(=O)(=O)c1c(-c2nc3ccc(C(F)(F)F)cn3n2)ncc2ccccc12 [Example I-15]
pest or weed control at 100 g/ha (Myzus persicae [3]; [6]): 90%
pest or weed control at 4 ppm (Myzus persicae [4]; [7]): 100%

CCS(=O)(=O)c1c(-c2nc3cnc(C(F)(F)F)cn3n2)ncc2ccccc12 [Example I-16]
pest or weed control at 100 g/ha (Myzus persicae [3]; [6]): 100%
pest or weed control at 4 ppm (Myzus persicae [4]; [7]): 100%

CCS(=O)(=O)c1c(-c2nc3ccc(C(F)(F)F)cn3n2)nc2n1CCCC2 [Example I-04]
pest or weed control at 4 ppm (Myzus persicae [4]; [7]): 100%

CCS(=O)(=O)c1c(C#N)nc2cc(C(F)(F)F)ccn12 [3-(Ethylsulfonyl)-7-(trifluoromethypimidazo[1,2-a]pyridine-2-carbonitrile]
chromatographic logP [1]: 2.28

CCS(=O)(=O)c1cc2ccccc2nc1-c1nc2ccc(C(F)(F)F)cn2n1 [Example I-03]
pest or weed control at 100 g/ha (Phaedon cochleariae; [8]): 100%
pest or weed control at 100 g/ha (Myzus persicae [3]; [6]): 90%
pest or weed control at 4 ppm (Myzus persicae [4]; [7]): 100%

From patent US11655258B2, “Heterocycle derivatives as pesticides” (BAYER AKTIENGESELLSCHAFT, priority 2017, dated 2023)
